Values after ≈ are worked out from the molar mass of the structure shown. Values joined by “and” are separate entries in the source; they are usually repeats but may differ in a detail not shown here. Equal values may be shown once. Read-outs that look alike come from different tables or passages of the source.
Experiments:
[1] = system: tetracycline resistant E. coli (tetA efflux pump); experiment: microbe, parasite or virus in culture; type: cell-based, Escherichia coli
Description: (§1) Among the organisms studied are several strains of the bacterium E. coli.
Minimal Inhibitory Concentration (MIC) Procedure. […] Streak the E. coli (DH5α or K-12 MG1655) strain on L.B agar plates. […] Prepare initial concentration of all the compounds required. • 5. […] Vortex each test tube for 2-3 seconds. • 9. […] Vortex each test tube for 2-3 seconds. • 11. […]
(§2) The minimal inhibitory concentrations (MIC) of all the compounds against three bacterial strains were first determined using the microtiter technique as described above. […] Antimicrobial property of hydraphiles is attributed to the disruption of ion homeostasis in bacteria.

HeLa = experiment: Cytotoxicity of hydraphiles to HeLa (XTT assay); details: concentration not given
NorA efflux pump [2] = biological target: T1, NorA efflux pump (Staphylococcus aureus, UniProt P0A0J7); experiment: Ethidium bromide release from preloaded S. aureus 1199B (efflux pump inhibition); type: cell-based; details: compound at 4 μM
T1 construct: Gram-positive S. aureus 1199B was used that overexpresses the NorA efflux pump; endogenous in cells; host or cells: S. aureus 1199B
T1 sequence (P0A0J7 whole entry): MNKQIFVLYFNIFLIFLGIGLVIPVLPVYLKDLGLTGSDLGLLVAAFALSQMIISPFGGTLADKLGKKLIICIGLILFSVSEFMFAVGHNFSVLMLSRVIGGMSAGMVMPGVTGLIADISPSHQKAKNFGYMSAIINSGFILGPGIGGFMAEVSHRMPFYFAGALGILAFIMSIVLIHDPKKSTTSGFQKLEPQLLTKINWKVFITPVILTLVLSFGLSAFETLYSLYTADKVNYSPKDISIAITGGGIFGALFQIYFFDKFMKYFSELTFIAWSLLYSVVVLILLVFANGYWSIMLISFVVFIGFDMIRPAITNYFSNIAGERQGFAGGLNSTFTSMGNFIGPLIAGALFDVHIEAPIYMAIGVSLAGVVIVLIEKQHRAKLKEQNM
Protocol: In a following experiment, the ability of hydraphiles to inhibit the activity of efflux pumps was determined. Specifically, the S. aureus cells were preloaded with EB using 100 μM CCCP. The cells were washed to remove extracellular EB and CCCP. The cells were then treated with hydraphiles. If hydraphiles inhibit the activity of efflux pumps, then there should be small or no change in fluorescence of EB-DNA complex. […] However, if there is no effect of hydraphiles on the efflux pump activity, EB would be released resulting in a decrease in fluorescence.

[3] = system: tetracycline resistant E. coli (tetA efflux pump); type: cell-based, Escherichia coli
Protocol: (§3) However, the bacterial strains used herein are multidrug resistant and the effect of hydraphiles on the inhibition of resistance mechanism (efflux pumps) was not known. The hydraphiles and the controls were tested next to see whether they could recover the activity of antibiotics against efflux pump expressing Gram-positive and Gram-negative bacteria. The MIC of antibiotics were determined in the presence of ½ [MIC] or ¼ [MIC] of each hydraphile or the controls used.

S. aureus 1199B = experiment: MIC, S. aureus 1199B; type: cell-based, Staphylococcus aureus
Description: (§4) K. pneumoniae (ATCC BAA 2146; another Gram-negative bacterium) that expresses multiple classes of efflux pumps and NDM-1 gene was also used. This K. pneumoniae is a clinically relevant strain that was isolated from a patient. Gram-positive S. aureus 1199B was used that overexpresses the NorA efflux pump. Since ethidium bromide and norfloxacin are the substrates of efflux pumps, S. aureus 1199B was used to evaluate the activity of efflux pumps in the presence of the hydraphiles and other membrane disruptors.
as §2

HEK-293 = experiment: Cytotoxicity of hydraphiles to HEK-293 (XTT assay); details: concentration not given
Cos-7 = experiment: Cytotoxicity of hydraphiles to Cos-7 (XTT assay); details: concentration not given
NorA efflux pump [4] = biological target: T1, NorA efflux pump; experiment: Ethidium bromide accumulation in S. aureus 1199B; type: cell-based; details: compound at 4 μM
Protocol: To determine if the activity of efflux pump and accumulation of substrate in the cell cytoplasm was affected by hydraphiles, the S. aureus 1199B strain overexpressing the NorA efflux pump was used. Since ethidium bromide (EB) is one of the substrates of the norA efflux pump, fluorescence from DNA-EB complex was utilized to measure effect of hydraphiles on the norA efflux pump. First, EB was added to the S. aureus 1199B cells followed by hydraphiles or the controls. If the hydraphiles allows for EB accumulation in the cell cytoplasm, an increase in fluorescence would be expected. […] Next step was to determine if the accumulation of EB in the cell cytoplasm was due to the ability of hydraphiles to inhibit the activity of the norA efflux pump or just a simple membrane disruption mechanism.

[5] = system: K. pneumoniae (ATCC BAA 2146); experiment: MIC, K. pneumoniae; type: cell-based, Klebsiella pneumoniae; details: for MIC: Klebsiella pneumoniae, BAA2146, read-out: Minimal Inhibitory Concentrations (MIC) K. pneumoniae
Description: as §4, §2

[6] = system: K. pneumoniae (ATCC BAA 2146); experiment: Recovery of antibiotic activity against K. pneumoniae by hydraphiles; type: cell-based, Klebsiella pneumoniae
Protocol: as §3

E. coli cells = experiment: Potassium release from E. coli cells (potassium selective electrode); details: control
Protocol: This change in potassium ion concentrations was measured using a Potassium selective electrode. […] Gramicidin D and valinomycin were used as controls. […] The potassium transport ability of C8-C14 hydraphiles was then tested at 4 μM.

Tet^R E. coli = experiment: Resistance development by sequential culturing
Description: Sequential culturing method was used to determine if bacteria could develop resistance to the hydraphiles.

K-12 E. coli [7] = experiment: MIC, K-12 E. coli; type: cell-based, Escherichia coli; details: compound alone
Description: (§5) Minimal Inhibitory Concentration (MIC) Procedure. […] Streak the E. coli (DH5α or K-12 MG1655) strain on L.B agar plates. […] Prepare initial concentration of all the compounds required. • 5. […] Vortex each test tube for 2-3 seconds. • 9. […] Vortex each test tube for 2-3 seconds. • 11.

B. subtilis = experiment: Minimum inhibitory concentration (MIC), B. subtilis; type: cell-based, Bacillus subtilis; details: compound alone
Protocol: Among the organisms studied are several strains of the bacterium E. coli. […] Experiments were conducted to determine the MIC values for the synthetic amphiphiles known as lariat ethers according to the procedures described in Antimicrobial M07-A9: Methods for Dilution Antimicrobial Susceptibility Tests for Bacteria that Grow Aerobically; Clinical and Laboratory Standards Institute, 2012; Vol. 32, 67 pp. MIC values so determined for several lariat ethers and for several antibiotics are shown in Table 1.

DH5α E. coli [8] = experiment: Combination of lariat ether and antibiotic against DH5α E. coli; type: cell-based, Escherichia coli;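 further: E. coli grown in test-tube liquid culture at a fixed total volume of 2 mL, with the amphiphile and the antibiotic both added to each tube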
Protocol: The volume of water added was between 12 to 0.5 μL. The volume of water added was not constant but the volume of media was changed so that the total volume was kept constant at 2 mL.
(§6) Steps 1-7, described in the MIC procedure, shown in Example 2, were followed. • 2. While the E. coli grew, the appropriate volume of compound was added to each test tube. • 3. Antibiotics were added at the required volume of solution to obtain the desired concentration in each test tube. […] Each test tube was vortexed for 2-3 seconds. • 5. Steps 10-12 from the MIC procedure, shown in Example 2, were then executed.

E. coli = experiment: Minimum inhibitory concentration (MIC), E. coli; type: cell-based, Escherichia coli; details: compound alone
Description: as §1, §5

K-12 E. coli [9] = experiment: Combination of amphiphile and antibiotic against K-12 E. coli; type: cell-based, Escherichia coli
Protocol: as §6

HEK-293 cells [10] = experiment: Toxicity of lariat ethers to HEK-293 cells (MTT assay); type: cell-based
Description: The error bars represent the standard error. […]

DH5α E. coli [11] = type: cell-based, Escherichia coli; details: compound alone
Description: as §1, §5

S. cerevisiae = experiment: Minimum inhibitory concentration (MIC), S. cerevisiae; type: cell-based, Saccharomyces cerevisiae; details: compound alone
HEK-293 cells [12] = type: cell-based, human
Description: It could be argued that hydraphiles could also localize and disrupt the mammalian cell membranes. […] These hydraphiles increased the permeability of E. coli cells at ½ MIC concentrations. […] It is concluded that C8-C14 hydraphiles can selectively increase the permeability of bacterial cells without affecting the permeability of mammalian cells. […] DMSO and Triton X-100 were used as controls.

[13] = compound alone, microtiter, inhibition greater than 80% considered as the MIC
[14] = amphiphile 1 μM (½[MIC] for C14 hydraphile)
[15] = compound alone, inhibition greater than 80% considered as the MIC
[16] = compound alone, tetracycline resistant E. coli
[17] = amphiphile/control 1700 μM (0.1%)

With `N#CC(C#N)=NNc1cccc(Cl)c1` [CCCP] the “Minimal Inhibitory Concentrations (MIC) E. coli (Tet^R)” value [1, 13] was 56 µM, the “cytotoxicity to HeLa (control)” value (HeLa) was “cytotoxic” and the “inhibition of NorA activity, lower than that of hydraphiles” value (NorA efflux pump [2]) was 30%. The Fold Enhancement [3, 14] was 1-fold, the “[Antibiotic] μM / Used (μM) in combination” value [3, 14] was 900 µM and the Fold Enhancement ([3]; amphiphile/control 21 μM) was 2-fold. The “[Tetracycline] μM in combination” value ([3]; amphiphile/control 21 μM) was 450 µM, the “[Tetracycline] μM in combination” value ([3]; amphiphile/control 42 μM) was 225 µM and the “Minimal Inhibitory Concentrations (MIC) S. aureus 1199B” value (S. aureus 1199B; [15]) was at most 4 µM. For the same compound, the “cytotoxicity to HEK-293 (control)” value (HEK-293) was “cytotoxic”, the “cytotoxicity to Cos-7 (control)” value (Cos-7) was “cytotoxic” and the “accumulation of ethidium bromide (EB) in the cell cytoplasm” value (NorA efflux pump [4]) was “much lower”.

With `O=C(O)c1cn(C2CC2)c2cc(N3CCNCC3)c(F)cc2c1=O` [Ciprofloxacin] the “susceptibility of S. aureus 1199B” value (S. aureus 1199B) was “resistant”, the MIC [5] was 700 µM (≈ 232 µg/mL) and the “recovery of ciprofloxacin activity by hydraphiles” value [6] was 10 fold.

In the case of `COC(=O)[C@H]1[C@H]2C[C@@H]3c4[nH]c5cc(OC)ccc5c4CCN3C[C@H]2C[C@@H](OC(=O)c2cc(OC)c(OC)c(OC)c2)[C@@H]1OC` [Reserpine], the MIC ([1]; Escherichia coli, read-out: Minimal Inhibitory Concentrations (MIC) E. coli (Tet^R), compound alone, microtiter, inhibition greater than 80% considered as the MIC) is reported as over 128 µM, the “inhibition of NorA activity, lower than that of hydraphiles” value (NorA efflux pump [2]) is reported as 30% and the Fold Enhancement ([3]; amphiphile/control 64 μM) is reported as 2-fold. The “[Tetracycline] μM in combination” value ([3]; amphiphile/control 64 μM) was 450 µM, the “[Tetracycline] μM in combination” value ([3]; amphiphile/control 128 μM) was 225 µM and the MIC (S. aureus 1199B; Staphylococcus aureus, 1199B, read-out: Minimal Inhibitory Concentrations (MIC) S. aureus 1199B) was over 128 µM. For the same compound, the “accumulation of ethidium bromide (EB) in the cell cytoplasm” value (NorA efflux pump [4]) was “much lower”.

`CC(C)[C@@H]1NC(=O)[C@H](C)OC(=O)[C@@H](C(C)C)NC(=O)[C@@H](C(C)C)OC(=O)[C@H](C(C)C)NC(=O)[C@H](C)OC(=O)[C@@H](C(C)C)NC(=O)[C@@H](C(C)C)OC(=O)[C@H](C(C)C)NC(=O)[C@H](C)OC(=O)[C@@H](C(C)C)NC(=O)[C@@H](C(C)C)OC1=O` [Valinomycin, reference compound] was tested, and the Fold Enhancement ([3]; amphiphile/control 20 μM) was 2-fold, the “[Tetracycline] μM in combination” value ([3]; amphiphile/control 20 μM) was 450 ± 100 µM and the “ion transport from E. coli (potassium)” value (E. coli cells) was “no change in ion transport”.

With `CN(C)c1ccc(O)c2c1C[C@H]1C[C@H]3[C@H](N(C)C)C(O)=C(C(N)=O)C(=O)[C@@]3(O)C(O)=C1C2=O` [minocycline] the “time in which Tet^R E. coli developed resistance” value (Tet^R E. coli) was 4 to 6 days.

With `CN(C)[C@@H]1C(O)=C(C(N)=O)C(=O)[C@@]2(O)C(O)=C3C(=O)c4c(O)cccc4[C@@](C)(O)[C@H]3C[C@@H]12` [tetracycline] the MIC ([1]; Escherichia coli, compound alone, tetracycline resistant E. coli) was about 900 µM (≈ 400 µg/mL), the “Minimal Inhibitory Concentrations (MIC) E. coli (Tet^R)” value [1, 13] was 900 µM and 900 ± 100 µM and the “MIC” value [1, 16] was 900 ± 50 µM and 900 µM. The MIC (K-12 E. coli [7]; Escherichia coli) was 6 µM (≈ 2.67 µg/mL), the MIC [5] was 1000 µM (≈ 444 µg/mL) and the “Minimal Inhibitory Concentrations (MIC) K. pneumoniae” value [5, 15] was 1000 ± 100 µM. The “recovery of tetracycline activity by hydraphiles” value [6] was 40 fold.

“N,N′-di-n-octyl-4,13-diaza-18-crown-6 [C8 lariat ether]” was tested, and the “MIC (μM) B. subtilis” value (B. subtilis) was 105 µM, the “Antibiotic Used (μM) in combination” value (DH5α E. coli [8]; rifampicin, amphiphile used 40 μM, 0.4 vol-% DMSO) was 3 ± 1 µM and the “Antibiotic Used (μM) in combination” value (DH5α E. coli [8]; rifampicin, amphiphile used 60 μM, 0.4 vol-% DMSO) was 3 ± 1 µM. For the same compound, the “Antibiotic Used (μM) in combination” value (DH5α E. coli [8]; rifampicin, amphiphile used 80 μM, 0.4 vol-% DMSO) was 3 ± 1 µM, the “Antibiotic Used (μM) in combination” value (DH5α E. coli [8]; tetracycline, amphiphile used 20 μM, 0.4 vol-% DMSO) was 12 µM and the “Antibiotic Used (μM) in combination” value (DH5α E. coli [8]; tetracycline, amphiphile used 30 μM, ≤0.6 vol-% DMSO) was 3 µM. For the same compound, the “Antibiotic Used (μM) in combination” value (DH5α E. coli [8]; tetracycline, amphiphile used 40 μM, 0.4 vol-% DMSO) was 2 µM, the “Antibiotic Used (μM) in combination” value (DH5α E. coli [8]; tetracycline, amphiphile used 60 μM, 0.4 vol-% DMSO) was 2 µM and the “Antibiotic Used (μM) in combination” value (DH5α E. coli [8]; tetracycline, amphiphile used 80 μM, 0.4 vol-% DMSO) was 0.5 µM. For the same compound, the “Antibiotic Used (μM) in combination” value (DH5α E. coli [8]; tetracycline, amphiphile used 100 μM, 0.4 vol-% DMSO) was 0.25 µM, the “MIC” value [1, 16] was 120 µM and the “MIC (μM) E. coli” value (E. coli) was 120 µM. For the same compound, the “Antibiotic Used (μM) in combination” value (K-12 E. coli [9]; Rifampicin, amphiphile used 32 μM) was 10 µM, the “Antibiotic Used (μM) in combination” value (K-12 E. coli [9]; Rifampicin, amphiphile used […] μM) was 5 µM and the “Antibiotic Used (μM) in combination” value (K-12 E. coli [9]; Tetracycline, amphiphile used […] μM) was 2.5 µM. For the same compound, the “Antibiotic Used (μM) in combination” value ([3]; amphiphile used 40 μM) was 233 µM, the “Fold Enhancement” value ([3]; amphiphile used 40 μM) was 4 fold and the “Antibiotic Used (μM) in combination” value ([3]; amphiphile used 60 μM) was 175 µM. The “Fold Enhancement” value ([3]; amphiphile used 60 μM) was 5 fold, the “Antibiotic Used (μM) in combination” value ([3]; amphiphile used 80 μM) was 87 µM and the “Fold Enhancement” value ([3]; amphiphile used 80 μM) was 10 fold. The MIC (K-12 E. coli [7]) was 300 µM, the “LD50 to HEK-293” value (HEK-293 cells [10]) was 33 µM and the “MIC” value (DH5α E. coli [11]) was over 240 µM. For the same compound, the “MIC” value (DH5α E. coli [11]; listed as C8 Lariat) was 120 µM, the “MIC” value (DH5α E. coli [11]; listed as n-C8) was over 120 µM and the “MIC (μM) S. cerevisiae” value (S. cerevisiae) was 25 µM.

With Triton X-100 [reference compound] the “[Tetracycline] μM in combination” value ([3]; amphiphile/control 20 μM) was 450 ± 100 µM, the Fold Enhancement [3, 17] was 2-fold and the “[Tetracycline] μM in combination” value [3, 17] was 450 ± 100 µM. The “viability and permeability of HEK-293 cells” value (HEK-293 cells [12]) was “killed all the HEK-293 cells”.

— patent publication US10463044B2, “Molecules that inhibit efflux pumps in multi-drug resistant bacteria and uses thereof” (priority 2014, dated 2019)
